For 25 molecules, TGI and GI50 results are on record in PubChem BioAssay (NCI).

Molecules are shown by their SMILES. Values joined by “and” are separate entries in the source; they are usually repeats but may differ in a detail not shown here. Equal values may be shown once.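 Following 48 hours of exposure in 96-well plates, responses at five concentrations were used to interpolate endpoints linearly. GI50 marks 50% less growth. At the TGI there is no net growth.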 Bounds are passed on as bounds.

Holding throughout (test): NCI-60 cell line screen, 48 h
The subject of experiment [1] is EKVX NSCLC.
Experiment [2] deals with LOX IMVI melanoma.
The test system of experiment [3] is KM20L2 colon.
Experiment [4] relates to HOP-62 NSCLC.
The subject of experiment [5] is OVCAR-8 ovarian.
Experiment [6] concerns U251 CNS.
Experiment [7] concerns TK-10 renal.
Experiment [8] relates to HCT-116 colon.
The subject of experiment [9] is MDA-N.
Experiment [10] concerns NCI-H226 lung.

For `c1ccc(SC(Sc2ccccc2)=C2CCC2)cc1`, the TGI in experiment [1], in experiment [2], in [3], in experiment [4], in [5] and in [6] was > 100 µM in each case. The TGI in experiment [7] and in experiment [8] was > 100 µM in each case.

`O=C1c2ccccc2C(=O)N1CCc1ncc(-c2ccccc2)[nH]1`: the TGI in experiment [1], in [9], in experiment [4], in [5], in [6] and in [10] was > 100 µM in each case. Besides, the TGI in [7] and in experiment [8] was > 100 µM each time.

For the molecule `CCCCCCCCCCCCSC(=S)c1c(C)[nH]n(-c2ccccc2)c1=O`, the TGI in experiment [1] was > 50 µM; in experiment [2], > 50 µM; in [3] it was 39.5 µM; in experiment [4], 15.6 µM; in experiment [5], > 50 µM; in experiment [6], > 50 µM. Besides, the TGI in experiment [10] and in [7] was > 50 µM throughout.

For `CCOC(=O)c1ccc(-n2cnc(-c3ccc([N+](=O)[O-])cc3)c2)cc1`, the TGI in [1], in [2], in experiment [9], in [4], in experiment [5] and in experiment [6] was > 100 µM throughout. The TGI in experiment [10], in [7] and in experiment [8] was > 100 µM each time.

Regarding `CC1(C)Oc2ccc3ccc(=O)oc3c2C(O)C1O` (centres undefined), the TGI in [1], in experiment [2], in experiment [9], in experiment [4], in experiment [5] and in experiment [6] was > 100 µM each time. The TGI in experiment [10] and in [8] was > 100 µM each time.

In the case of `CC(C)(C)C(=O)N1C(C(=O)O)Cc2ccccc2[C@@H]1Cc1ccccc1` (some centres undefined), the TGI in [1], in experiment [3], in [4], in [5], in experiment [6] and in experiment [10] was > 100 µM in each case. The TGI in experiment [7] and in experiment [8] was > 100 µM in each case.

In the case of `Cc1ccc(NCC2(/N=C/c3ccccc3)OC(CO)C(O)C2O)cc1` (centres undefined), the TGI was 49.4 µM in experiment [3]; > 100 µM in [4]; > 100 µM in [5]; 83.7 µM in experiment [6]; > 100 µM in experiment [10]; > 100 µM in [7]. In addition, in experiment [8], the TGI was > 100 µM.

As to `OC1CC2CCC(C1)N2CCCN1c2ccccc2Sc2ccc(Cl)cc21` (centres undefined), the TGI in experiment [1] worked out at 10.1 µM; in experiment [2] it was 3.33 µM; in experiment [9], 3.62 µM; in [4] it was 10.4 µM; in experiment [5], 4.86 µM; in experiment [6], 3.45 µM. Besides, the TGI in experiment [10] stood at 15.2 µM; in experiment [7], 3.61 µM; in [8], 3.64 µM.

For the molecule `Nc1nc(=O)n(C2CCC(CO)O2)cc1F` (centres undefined), the TGI in [1], in experiment [2], in [3], in experiment [4], in experiment [5] and in experiment [6] was > 100 µM throughout. Moreover, the TGI in experiment [10] and in [7] was > 100 µM throughout.

For the molecule `Cc1ccc(OP(=O)(Oc2ccc(C)cc2)N2C=Cc3ccccc3C2C#N)cc1` (centres undefined), the TGI in [1], in [2], in experiment [9], in experiment [4], in experiment [5] and in experiment [6] was > 100 µM each time. For the same molecule, the TGI in experiment [10], in experiment [7] and in [8] was > 100 µM throughout.

For `COc1ccc(/C=C/c2cc(OC)c(OC(C)=O)c(OC)c2)cc1`, the TGI in [1] was > 100 µM; in [3], > 100 µM; in [4] it was 73.7 µM; in experiment [5], > 100 µM; in [6], 38.4 µM; in experiment [10], 96.6 µM. For the same molecule, the TGI in [8] was > 100 µM.

Consider `O=[N+]([O-])c1nccn1CC(O)c1ccccc1` (centres undefined), for which the TGI in experiment [1], in experiment [2], in [3], in experiment [4], in [5] and in experiment [6] was > 100 µM each time. The TGI in [10] and in [7] was > 100 µM throughout.

As to `O=C1Nc2c(Cl)cc(Cl)cc2/C1=N/N=C/c1ccco1`, the TGI was 84.9 µM in experiment [1]; 35 µM in [2]; 55.3 µM in experiment [9]; > 100 µM in experiment [4]; > 100 µM in [5]; > 100 µM in experiment [6]. Moreover, the TGI in [10] is 59.2 µM; in experiment [7], > 100 µM; in experiment [8], > 100 µM.

As for `NC(=O)c1cc(N2CC2)c([N+](=O)[O-])cc1[N+](=O)[O-]`, the GI50 in experiment [1], in [2], in [4], in [5], in experiment [6] and in experiment [10] was > 200 µM each time. The GI50 in experiment [8] was > 200 µM. The TGI in experiment [1], in experiment [2], in experiment [9], in experiment [4], in [5] and in experiment [6] was > 200 µM each time. The TGI in experiment [10], in [7] and in [8] was > 200 µM throughout.

Regarding `O=C(CC1(O)C(=O)Nc2c(Cl)cc(Cl)cc21)c1ccccc1` (centres undefined), the TGI in [1], in experiment [2], in experiment [3], in experiment [5], in [10] and in experiment [7] was > 100 µM in each case. Moreover, in experiment [8], the TGI is > 100 µM.

With `Cc1ccc(OCC2CO2)c(Br)c1` (centres undefined), the TGI is 35.8 µM in [1]; 30.4 µM in experiment [2]; 58.9 µM in experiment [9]; > 100 µM in experiment [4]; 20.4 µM in experiment [5]; 32.6 µM in experiment [6]. For the same molecule, the TGI was 34.1 µM in experiment [10], > 100 µM in [7] and 73.3 µM in experiment [8].

In the case of `COc1ccc(CC(=O)NCCc2ccc(OC)c(OC)c2OC)cc1`, the TGI in [1], in experiment [3], in [4], in experiment [5], in experiment [6] and in experiment [10] was > 100 µM in each case. Also, the TGI in [7] and in [8] was > 100 µM in each case.

Turning to `Fc1cccc(COc2ccc(Nc3ncnc4onc(-c5ccccc5)c34)cc2)c1`, the GI50 is 1.61 µM in experiment [1]; 0.125 µM in experiment [2]; 0.406 µM in [4]; 0.262 µM in experiment [5]; 0.215 µM in experiment [6]; 3.06 µM in experiment [10]. The values for the GI50 in experiment [7] and in [8] were 1.21 µM and 0.0546 µM, respectively. Moreover, the TGI was > 100 µM in experiment [1]; > 100 µM in [2]; > 100 µM in experiment [4]; > 100 µM in [5]; > 86.8 µM in experiment [6]; > 100 µM in [10]. Also, the figures for the TGI in experiment [7] and in experiment [8] were 36.1 µM and > 37.4 µM, respectively.

Consider `CC(C)(C)OC(=O)C1C(=O)NC(=O)CC1CC(OCc1ccccc1)C(OCc1ccccc1)C(COCc1ccccc1)OCc1ccccc1` (centres undefined), for which the GI50 in [1] is 62.2 µM and 12.6 µM; in experiment [2], 34.7 µM and 8.43 µM; in experiment [9] it was > 100 µM and 34.2 µM; in experiment [4], > 100 µM and 34 µM; in experiment [5], 33.1 µM and 12 µM; in experiment [6] it was 19.6 µM and 5.39 µM. The GI50 in experiment [10] was 33 µM and 14 µM; in experiment [8], 48.5 µM and 17 µM. Also, the TGI in [1] is > 100 µM; in experiment [2], > 100 µM and 21.4 µM; in experiment [9] it was > 100 µM; in experiment [4], > 100 µM; in experiment [5], > 100 µM; in experiment [6] it was > 100 µM and 56.3 µM. Besides, the TGI in experiment [10], in [7] and in experiment [8] was > 100 µM each time.

Consider `NC(=O)CC1OC(=O)Cc2cc3c(c(O)c21)C(=O)c1c(O)cccc1C3=O` (centres undefined), for which the TGI in experiment [1], in experiment [2], in [9], in experiment [5], in experiment [6] and in [10] was > 100 µM in each case. Besides, the TGI in experiment [7] and in experiment [8] was > 100 µM in each case.

Take `COc1cc(CCC[P+](c2ccccc2)(c2ccccc2)c2ccccc2)c(OC)c2c1OCO2`: the GI50 was 2.83 µM in experiment [1]; 2.48 µM in experiment [2]; 2.91 µM in experiment [4]; 2.36 µM in experiment [5]; 1.63 µM in [6]; 3.13 µM in experiment [10]. The values for the GI50 in experiment [7] and in [8] were 4.05 µM and 0.989 µM, respectively. In addition, the TGI in experiment [1] was determined as 35.2 µM; in experiment [2], 12.1 µM; in [4] it was 11.3 µM; in experiment [5], 24.2 µM; in experiment [6], 17.5 µM; in experiment [10], 21.3 µM. Further, the TGI was 23.3 µM in experiment [7] and 16.2 µM in experiment [8].

In the case of `O=S(=O)(N=C1C(Cl)=C(Cl)C(=NS(=O)(=O)c2ccccc2)C(Cl)=C1Cl)c1ccccc1`, the GI50 was 31.5 µM in experiment [1]; 15.4 µM in experiment [2]; 27.5 µM in [4]; 17.7 µM in experiment [5]; 19.3 µM in experiment [6]; 21.6 µM in experiment [10]. Moreover, the figures for the GI50 in experiment [7] and in experiment [8] were 24.9 µM and 13.6 µM, respectively. The TGI was > 100 µM in experiment [1]; 43.1 µM in [2]; 80.3 µM in [4]; 50.6 µM in experiment [5]; 54 µM in [6]; 56.2 µM in experiment [10]. Also, the figures for the TGI in experiment [7] and in experiment [8] were 61.9 µM and 29.1 µM, respectively.

`COC[C@H](NC(=O)c1cnc(C)s1)C(=O)N[C@@H](COC)C(=O)N[C@@H](Cc1ccccc1)C(=O)[C@@]1(C)CO1`: the GI50 in experiment [1] is 44.4 µM; in experiment [2], 17.8 µM; in experiment [4], 31.4 µM; in experiment [5], > 93.2 µM; in experiment [6] it was 47.8 µM; in experiment [10], 17.4 µM. The values for the GI50 in experiment [7] and in [8] were 27.3 µM and 9.27 µM, respectively. For the same molecule, the TGI in experiment [1] is > 100 µM; in experiment [2], 38.4 µM; in [4] it was > 95.4 µM; in experiment [5] it was > 100 µM; in experiment [6], > 100 µM; in [10] it was 46.6 µM. Besides, the TGI in [7] was > 72.2 µM; in experiment [8], 32.6 µM.

`COc1ccc2cc(-c3cnc4nonc4n3)ccc2c1`: the GI50 was 0.83 µM in experiment [1]; 1.88 µM in experiment [2]; 5.22 µM in experiment [4]; 2.54 µM in [5]; 3.21 µM in experiment [6]; 6.43 µM in experiment [10]. Further, the results for the GI50 in experiment [7] and in [8] were 10.6 µM and 2.12 µM, respectively. Further, the TGI in [1] was > 100 µM; in experiment [2] it was > 100 µM; in experiment [4] it was 64 µM; in experiment [5] it was > 100 µM; in experiment [6], 37.3 µM; in experiment [10] it was > 100 µM. Moreover, the TGI in experiment [7] and in experiment [8] was > 100 µM in each case.

On to `COc1ccc(NC(=O)Oc2ccc3c(C)cc(=O)oc3c2)c(OC)c1` (tested in a mixture with another compound), for which the TGI in [1], in experiment [9], in [4], in experiment [5], in [6] and in [10] was > 100 µM throughout. The TGI in [7] and in experiment [8] was > 100 µM in each case.
